In patent publication US10875875B2, “Propionic acid derivatives and methods of use thereof” (Aviara Pharmaceuticals, Inc., priority 2017, dated 2020) one finds IC50 data, which are given here for 3 compounds.

The target in assay [1] is α4β1 (Homo sapiens, UniProt P05556+P13612). The experiment in a line: α4β1 integrin inhibition, IC50. It is filed as binding. The note with it: read-out: α4β1 IC50.
In assay [2] the target is T1, α4β7 (Homo sapiens, UniProt P13612+P26010).
T1 sequence (P13612 34-1032): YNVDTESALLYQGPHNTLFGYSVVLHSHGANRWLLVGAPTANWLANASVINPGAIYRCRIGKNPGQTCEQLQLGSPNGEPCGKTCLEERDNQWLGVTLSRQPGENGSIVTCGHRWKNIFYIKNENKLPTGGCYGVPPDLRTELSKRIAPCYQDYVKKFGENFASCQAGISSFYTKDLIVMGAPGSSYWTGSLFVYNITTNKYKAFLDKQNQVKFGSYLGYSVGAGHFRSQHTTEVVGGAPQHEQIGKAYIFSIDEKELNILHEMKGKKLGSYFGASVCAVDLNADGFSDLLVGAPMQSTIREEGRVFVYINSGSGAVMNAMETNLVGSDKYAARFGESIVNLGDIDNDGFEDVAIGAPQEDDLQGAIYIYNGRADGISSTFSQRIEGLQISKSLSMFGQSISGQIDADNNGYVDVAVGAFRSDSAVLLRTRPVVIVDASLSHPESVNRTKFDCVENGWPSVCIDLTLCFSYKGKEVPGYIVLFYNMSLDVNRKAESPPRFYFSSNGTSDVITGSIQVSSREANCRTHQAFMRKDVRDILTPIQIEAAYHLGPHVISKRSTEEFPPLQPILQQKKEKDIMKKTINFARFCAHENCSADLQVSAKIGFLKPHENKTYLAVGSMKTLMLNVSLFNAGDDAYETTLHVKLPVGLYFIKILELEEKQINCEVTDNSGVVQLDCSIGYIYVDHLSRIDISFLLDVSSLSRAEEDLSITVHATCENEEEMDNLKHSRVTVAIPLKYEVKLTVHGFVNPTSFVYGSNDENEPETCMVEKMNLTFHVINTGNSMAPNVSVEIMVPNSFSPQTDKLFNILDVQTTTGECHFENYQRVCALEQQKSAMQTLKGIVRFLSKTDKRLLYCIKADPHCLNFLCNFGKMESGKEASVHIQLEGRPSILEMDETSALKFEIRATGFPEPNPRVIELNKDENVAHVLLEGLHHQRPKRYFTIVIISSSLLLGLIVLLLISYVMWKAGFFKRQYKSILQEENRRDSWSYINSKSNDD
T1 sequence (P26010 20-798): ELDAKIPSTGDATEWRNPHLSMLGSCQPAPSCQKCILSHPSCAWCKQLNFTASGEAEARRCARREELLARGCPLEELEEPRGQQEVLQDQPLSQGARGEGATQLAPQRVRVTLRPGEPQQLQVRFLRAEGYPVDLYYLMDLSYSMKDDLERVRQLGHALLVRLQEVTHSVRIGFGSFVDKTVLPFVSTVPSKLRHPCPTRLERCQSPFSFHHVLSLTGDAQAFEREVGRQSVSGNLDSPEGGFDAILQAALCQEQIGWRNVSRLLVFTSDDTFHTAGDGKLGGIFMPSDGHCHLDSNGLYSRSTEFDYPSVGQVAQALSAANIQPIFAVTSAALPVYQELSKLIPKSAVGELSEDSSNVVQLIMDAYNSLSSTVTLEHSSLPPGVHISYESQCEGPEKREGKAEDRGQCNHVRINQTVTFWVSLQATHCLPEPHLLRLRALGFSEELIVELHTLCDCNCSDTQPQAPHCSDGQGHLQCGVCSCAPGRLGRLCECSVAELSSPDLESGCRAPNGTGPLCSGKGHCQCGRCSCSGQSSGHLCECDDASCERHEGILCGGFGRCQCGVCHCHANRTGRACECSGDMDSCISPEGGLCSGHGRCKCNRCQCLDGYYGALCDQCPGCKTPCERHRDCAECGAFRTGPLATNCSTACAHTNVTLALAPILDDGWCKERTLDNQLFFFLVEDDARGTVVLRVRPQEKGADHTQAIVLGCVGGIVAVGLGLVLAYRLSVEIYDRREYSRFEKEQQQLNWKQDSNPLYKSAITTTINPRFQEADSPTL
The experiment in a line: α4β7 integrin inhibition, IC50. The class given is binding.

Sequence of α4β1 (P05556 21-798, one chain of several): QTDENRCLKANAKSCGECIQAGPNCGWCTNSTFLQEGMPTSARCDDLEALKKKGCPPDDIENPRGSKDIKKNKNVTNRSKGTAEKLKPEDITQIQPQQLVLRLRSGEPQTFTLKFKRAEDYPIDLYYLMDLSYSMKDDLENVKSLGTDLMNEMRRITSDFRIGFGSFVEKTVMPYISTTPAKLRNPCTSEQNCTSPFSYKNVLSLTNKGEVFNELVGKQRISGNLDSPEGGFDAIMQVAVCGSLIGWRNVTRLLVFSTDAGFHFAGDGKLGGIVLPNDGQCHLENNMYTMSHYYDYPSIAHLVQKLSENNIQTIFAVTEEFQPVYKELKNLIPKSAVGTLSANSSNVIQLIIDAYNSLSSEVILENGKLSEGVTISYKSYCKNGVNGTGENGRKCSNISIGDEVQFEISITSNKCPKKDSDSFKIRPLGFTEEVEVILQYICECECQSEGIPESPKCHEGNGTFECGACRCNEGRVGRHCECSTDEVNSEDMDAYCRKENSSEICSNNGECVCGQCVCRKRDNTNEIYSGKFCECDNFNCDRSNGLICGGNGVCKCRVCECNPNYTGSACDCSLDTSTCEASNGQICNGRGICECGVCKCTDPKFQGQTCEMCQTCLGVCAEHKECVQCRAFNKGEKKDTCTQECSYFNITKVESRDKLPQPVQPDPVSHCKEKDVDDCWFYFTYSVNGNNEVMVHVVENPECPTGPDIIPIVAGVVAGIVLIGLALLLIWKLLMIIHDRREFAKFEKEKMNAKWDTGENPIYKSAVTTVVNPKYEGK

For `Cc1cccc(C)c1-c1cccc([C@H](CC(=O)O)NC(=O)Nc2c(O)cc3n(c2=O)CCC3)c1` [1-583, sodium (S)-3-(2′,6′-dimethylbiphenyl-3-yl)-3-(3-(7-oxido-5-oxo-1,2,3,5-tetrahydroindolizin-6-yl)ureido)propanoate], the 50% inhibitory concentration (IC50) in assay [1] and in assay [2] was under 20 nM in each case.
For the compound `Cn1ccc(O)c(NC(=O)N[C@@H](CC(=O)O)c2ccc(-c3ccc(F)cc3F)s2)c1=O` [1-562, sodium (S)-3-(5-(2,4-difluorophenyl)thiophen-2-yl)-3-(3-(1-methyl-4-oxido-2-oxo-1,2-dihydropyridin-3-yl)ureido)propanoate], the results for the IC50 in assay [1] and in assay [2] were under 20 nM and over 200 nM, respectively.
On to `Cc1cccc(C)c1-c1cccc([C@H](CC(=O)O)NC(=O)Nc2c(O)ccn(C)c2=O)c1` [1-502, sodium (S)-3-(2′,6′-dimethylbiphenyl-3-yl)-3-(3-(1-methyl-4-oxido-2-oxo-1,2-dihydropyridin-3-yl)ureido)propanoate], for which the IC50 in assay [1] is under 20 nM; in assay [2], under 200 nM.
